Data published in patent US20240132431A1, “METHOD FOR ALKYLATING ACIDIC FUNCTIONAL GROUP” (Chugai Seiyaku Kabushiki Kaisha, priority 2021, published 2024).

Biological target: T1, Bcl-2 protein (Recombinant Human Bcl-2 Protein) (Homo sapiens, UniProt P10415)
T1 construct: purchased Novus NBP2-34889
Experiment: Binding evaluation of mixture library compounds to Bcl-2 using AS-MS (affinity selection mass spectrometry)
Outline: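 ASMS Ratio (%) was calculated as (A−C)/B×100, where A is the protein sample after SEC, B the protein-free sample without SEC and C the protein-free sample after SEC. Each compound was at […] in a 1200-member pool with 20 μM Bcl-2, incubated 1 h at 23° C.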

T1 sequence (P10415 whole entry): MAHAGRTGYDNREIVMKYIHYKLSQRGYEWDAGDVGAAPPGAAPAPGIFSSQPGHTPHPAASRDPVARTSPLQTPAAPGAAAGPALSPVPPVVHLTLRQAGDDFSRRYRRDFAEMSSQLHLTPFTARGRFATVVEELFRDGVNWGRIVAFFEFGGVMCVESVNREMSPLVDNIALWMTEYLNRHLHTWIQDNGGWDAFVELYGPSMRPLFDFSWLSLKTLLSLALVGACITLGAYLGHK

SMILES | ASMS ratio (%) (n = 1) | ASMS ratio (%) (n = 2)
CCOc1cccc(C#Cc2ccccc2C(=O)N2CCN(c3ccc(C(=O)NS(=O)(=O)C(C)(C)C)nn3)CC2)c1 [B2L007-01, N-tert-Butylsulfonyl-6-[4-[2-[2-(3-ethoxyphenyl)ethynyl]benzoyl]piperazin-1-yl]pyridazine-3-carboxamide] | 0.0% | −1.0%
CCOc1cncc(C#Cc2ccccc2C(=O)N2CCN(c3ccc(C(=O)NS(=O)(=O)C(C)(C)C)nn3)CC2)c1 [B2L008-01, N-tert-Butylsulfonyl-6-[4-[2-[2-(5-ethoxypyridin-3-yl)ethynyl]benzoyl]piperazin-1-yl]pyridazine-3-carboxamide] | 0.0% | 0.0%
CCOc1cccc(C#Cc2cncc(C(=O)N3CCN(c4ccc(C(=O)NS(=O)(=O)C(C)(C)C)nn4)CC3)c2)c1 [B2L009-01, N-tert-Butylsulfonyl-6-[4-[5-[2-(3-ethoxyphenyl)ethynyl]pyridine-3-carbonyl]piperazin-1-yl]pyridazine-3-carboxamide] | 0.0% | 0.0%
CCOc1cncc(C#Cc2cncc(C(=O)N3CCN(c4ccc(C(=O)NS(=O)(=O)C(C)(C)C)nn4)CC3)c2)c1 [B2L010-01, N-tert-Butylsulfonyl-6-[4-[5-[2-(5-ethoxypyridin-3-yl)ethynyl]pyridine-3-carbonyl]piperazin-1-yl]pyridazine-3-carboxamide] | 0.0% | 0.0%
CCOc1cccc(-c2ccccc2CCC(=O)N2CCN(c3ccc(C(=O)NS(=O)(=O)C(C)(C)C)nn3)CC2)c1 [B2L011-01, N-tert-Butylsulfonyl-6-[4-[3-[2-(3-ethoxyphenyl)phenyl]propanoyl]piperazin-1-yl]pyridazine-3-carboxamide] | 0.0% | 0.0%
CCOc1cncc(-c2ccccc2CCC(=O)N2CCN(c3ccc(C(=O)NS(=O)(=O)C(C)(C)C)nn3)CC2)c1 [B2L012-01, N-tert-Butylsulfonyl-6-[4-[3-[2-(5-ethoxypyridin-3-yl)phenyl]propanoyl]piperazin-1-yl]pyridazine-3-carboxamide] | 4.3% | 7.3%
CCOc1cccc(-c2ccc(C(=O)N3CCN(c4ccc(C(=O)NS(=O)(=O)C(C)(C)C)nn4)CC3)c3ccccc23)c1 [B2L013-01, N-tert-Butylsulfonyl-6-[4-[4-(3-ethoxyphenyl)naphthalene-1-carbonyl]piperazin-1-yl]pyridazine-3-carboxamide] | 0.0% | 0.0%
CCOc1cncc(-c2ccc(C(=O)N3CCN(c4ccc(C(=O)NS(=O)(=O)C(C)(C)C)nn4)CC3)c3ccccc23)c1 [B2L014-01, N-tert-Butylsulfonyl-6-[4-[4-(5-ethoxypyridin-3-yl)naphthalene-1-carbonyl]piperazin-1-yl]pyridazine-3-carboxamide] | 0.3% | 0.5%
CCOc1cccc(-c2cc(C(=O)N3CCN(c4ccc(C(=O)NS(=O)(=O)C(C)(C)C)nn4)CC3)cc(C(C)(C)C)c2)c1 [B2L015-01, 6-[4-[3-tert-Butyl-5-(3-ethoxyphenyl)benzoyl]piperazin-1-yl]-N-tert-butylsulfonylpyridazine-3-carboxamide] | 0.0% | 0.0%
CCOc1cncc(-c2cc(C(=O)N3CCN(c4ccc(C(=O)NS(=O)(=O)C(C)(C)C)nn4)CC3)cc(C(C)(C)C)c2)c1 [B2L016-01, 6-[4-[3-tert-Butyl-5-(5-ethoxypyridin-3-yl)benzoyl]piperazin-1-yl]-N-tert-butylsulfonylpyridazine-3-carboxamide] | 0.0% | −5.4%
CCOc1cccc(-c2cc(C(=O)N3CCN(c4ccc(C(=O)NS(=O)(=O)C(C)(C)C)nn4)CC3)cc(C(F)(F)F)c2)c1 [B2L017-01, N-tert-Butylsulfonyl-6-[4-[3-(3-ethoxyphenyl)-5-(trifluoromethyl)benzoyl]piperazin-1-yl]pyridazine-3-carboxamide] | 0.0% | 0.0%
